Laboratory results as given in ChEMBL document CHEMBL1121755, “Comparison of the inhibition of methotrexate-sensitive and -resistant Lactobacillus casei cell cultures with purified Lactobacillus casei dihydrofolate reductase by 4,6-diamino-1,2-dihydro-2,2-dimethyl-1-(3-substituted-phenyl)-s-triazines. Use of quantitative structure-activity relationships in …” (1981).

Each compound was assayed against Dihydrofolate reductase (Lactobacillus casei) (UniProt P00381). Conditions: Lacticaseibacillus casei.
Sequence of Dihydrofolate reductase (Lactobacillus casei) (P00381 whole entry): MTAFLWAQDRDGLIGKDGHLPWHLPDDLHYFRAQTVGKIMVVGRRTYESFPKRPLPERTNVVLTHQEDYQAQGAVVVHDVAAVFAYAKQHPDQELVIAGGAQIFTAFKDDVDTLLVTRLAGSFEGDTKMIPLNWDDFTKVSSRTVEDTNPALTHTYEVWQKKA
Description: Inhibitory activity against Lactobacillus casei dihydrofolate reductase (DHFR)

| Structure (SMILES) | log 1/Ki app |
| --- | --- |
| CC1(C)N=C(N)N=C(N)N1c1cccc(OCCOc2cccc(C(F)(F)F)c2)c1 | 4.1 |
| CC1(C)N=C(N)N=C(N)N1c1cccc(CNc2cc(C(N)=O)cc(C(N)=O)c2)c1 | 4.74 |
| CC1(C)N=C(N)N=C(N)N1c1cccc(F)c1 | 3.29 |
| CCCCCCCCCCCCCCOc1cccc(N2C(N)=NC(N)=NC2(C)C)c1 | 4.5 |
| CC1(C)N=C(N)N=C(N)N1c1cccc(S(=O)(=O)F)c1 | 3.21 |
| CC1(C)N=C(N)N=C(N)N1c1cccc(OCCCCOc2cccc(C(F)(F)F)c2)c1 | 4.79 |
| CC1(C)N=C(N)N=C(N)N1c1cccc([N+](=O)[O-])c1 | 3.56 |
| CC1(C)N=C(N)N=C(N)N1c1cccc(OCCCCOc2ccccc2)c1 | 4.79 |
| CC1(C)N=C(N)N=C(N)N1c1cccc(I)c1 | 3.73 |
| CCCCCCc1cccc(N2C(N)=NC(N)=NC2(C)C)c1 | 4.96 |
| CC1(C)N=C(N)N=C(N)N1c1cccc(Br)c1 | 3.69 |
| CCCCCCCCCCCOc1cccc(N2C(N)=NC(N)=NC2(C)C)c1 | 4.54 |
| CCCCCCCCCCCCOc1cccc(N2C(N)=NC(N)=NC2(C)C)c1 | 4.63 |
| CCCCCCCCCCCCCOc1cccc(N2C(N)=NC(N)=NC2(C)C)c1 | 4.81 |
| CCCCCCCCCOc1cccc(N2C(N)=NC(N)=NC2(C)C)c1 | 4.71 |
| CCOC(=O)c1cccc(N2C(N)=NC(N)=NC2(C)C)c1 | 3.21 |
| CC(C)(C)c1cccc(N2C(N)=NC(N)=NC2(C)C)c1 | 3.2 |
| Cc1cccc(N2C(N)=NC(N)=NC2(C)C)c1 | 3.07 |
| CC(=O)c1cccc(N2C(N)=NC(N)=NC2(C)C)c1 | 2.87 |

The next lines start with the values.

| log 1/Ki app | Structure (SMILES) |
| --- | --- |
| 4.2 | CCCCOc1cccc(N2C(N)=NC(N)=NC2(C)C)c1 |
| 5.44 | CC1(C)N=C(N)N=C(N)N1c1cccc(COc2ccccc2)c1 |
| 5.45 | CC1(C)N=C(N)N=C(N)N1c1cccc(COc2cccc(CO)c2)c1 |
| 5.31 | CC1(C)N=C(N)N=C(N)N1c1cccc(COc2cccc(C#N)c2)c1 |
| 4.2 | CC1(C)N=C(N)N=C(N)N1c1cccc(OCc2ccccc2)c1 |
| 5.31 | CCc1cccc(OCc2cccc(N3C(N)=NC(N)=NC3(C)C)c2)c1 |
| 5.41 | CC1(C)N=C(N)N=C(N)N1c1cccc(COc2cccc(Cl)c2)c1 |
| 5.56 | COc1cccc(OCc2cccc(N3C(N)=NC(N)=NC3(C)C)c2)c1 |
| 5.44 | CC(C)(C)c1cccc(OCc2cccc(N3C(N)=NC(N)=NC3(C)C)c2)c1 |
| 4.41 | CC1(C)N=C(N)N=C(N)N1c1cccc(OCc2ccc(Cl)c(Cl)c2)c1 |
| 5.41 | CC(C)c1cccc(OCc2cccc(N3C(N)=NC(N)=NC3(C)C)c2)c1 |
| 4.36 | CC1(C)N=C(N)N=C(N)N1c1cccc(COc2cccc(NC(=N)S)c2)c1 |
| 5.45 | CC(=O)Nc1cccc(OCc2cccc(N3C(N)=NC(N)=NC3(C)C)c2)c1 |
| 5.33 | Cc1cccc(OCc2cccc(N3C(N)=NC(N)=NC3(C)C)c2)c1 |
| 3.74 | CC1(C)N=C(N)N=C(N)N1c1cccc(OCCOc2ccccc2)c1 |
| 5.36 | CC1(C)N=C(N)N=C(N)N1c1cccc(COc2cccc(NC(N)=O)c2)c1 |
